Data reported in patent US12023329B2, “Methods for the treatment of diseases associated with activation of inflammasomes” (Chang Gung University, priority 2020, dated 2024).

Assays:
LPS-primed d-THP-1 cells [1] = assay: Nigericin-induced pyroptotic cell death observed by field emission scanning electron microscopy; type: cell-based, Human; details: rebastinib 1 μM or glibenclamide 50 μM, 30 min, nigericin 5 μM 30 min, SEM images
Description: d-THP-1 cells (treated with LPS, the tested compounds, and the stimulant as described above or untreated) were fixed, in sequence, by use of 4% paraformaldehyde and 2.5% glutaraldehyde, respectively for 10 min, washed with PBS, then reacted with osmium tetroxide (OsO4) for 30 min; the cells were thoroughly washed with distilled water, then incubated with tannic acid for 30 min. […] Repeated the 100% ethanol dehydration step 3 times. The specimens were then dried with a mixture of CO2 and ethanol supercritical condition using Critical Point Dryer (CPD) (LEICAME CPD 300). The dried specimens were subsequently fixed on an alumina platform, and sputted with gold ions (ion sputter, JEOL JFC-1100E, operated at 1-2 mA for 60 sec) before subjecting to observation under Field Emission Scanning Electron Microscope (FE-SEM).
(§1) Pyroptosis is a form of programmed cell death. In this process, immune cells recognize foreign danger signals within themselves, release pro-inflammatory cytokines, swell, burst, and die. In this example, the effects of the present compound on nigericin-induced pyroptotic cell death and LDH release were investigated, in which the pyroptosis phenomena was observed using Field Emission Scanning Electron Microscope, and LDH level was determined by enzymatic assay.

LPS-primed d-THP-1 cells [2] = assay: Nigericin-induced IL-1β secretion in LPS-primed d-THP-1 cells (ELISA); type: cell-based, Human; details: rebastinib 0.01-1 μM, 30 min pre-incubation, nigericin 5 μM 30 min, IL-1β in supernatant by ELISA
Description: (§2) Human monocytic cell line THP-1 was purchased from American Type Culture Collection (ATCC) and maintained in RPMI-1640 Medium supplemented with 10% fetal bovine serum (FBS), 1% antibiotic-antimycotic solution, 0.1% (3-mercaptoethanol ((3-ME), and phenol red indicator in an incubator at 37° C. with 5% CO2. The medium was changed every 2-3 days.
(§3) To induce differentiation, THP-1 cells (cell density was about 5×10^5/mL) was cultivated in a serum-free medium containing 100 nM of phorbol 12-myristate 13-acetate (PMA) for about 4 hr. Then, the PMA-containing medium was replaced with a fresh RPMI-1640 medium, and the cultivation was continued for another 2 days to allow the THP-1 cells to differentiate into macrophage-like cells, hereafter termed “d-THP-1 cells.”
(§4) d-THP1 cells were first treated with 100 ng/mL of lipopolysaccharide (LPS) for 3 hr, then LPS-containing medium was replaced by a fresh medium. […]
(§5) The level of IL-1β and IL-18 was independently determined by ELISA assay kit (R&D system) in accordance with the manufacturer's protocol. The level of […] and IL-18 was determined from the 450 and 540 nm absorbance measured by Multiskan GO multiplate reader. […]

LPS-primed d-THP-1 cells [3] = assay: MSU-induced IL-1β secretion in LPS-primed d-THP-1 cells (ELISA); type: cell-based, Human; details: rebastinib 0.003-1 μM, 30 min pre-incubation, MSU 100 μg/ml 4 hr
Description: as §2, §3, §4, §5

LPS-primed d-THP-1 cells [4] = assay: Nigericin-induced pyroptotic LDH release; type: cell-based, Human; details: rebastinib 0.01-1 μM, 30 min, nigericin 5 μM 30 min
Description: as §1

LPS-primed d-THP-1 cells [5] = assay: Nigericin-induced ASC speck formation (fluorescent microscopy); type: cell-based, Human; details: rebastinib 1 μM or glibenclamide 50 μM, 30 min, nigericin 5 μM 30 min, anti-ASC staining
Description: d-THP-1 cells (treated with LPS, the tested compound, and the stimulant as described above or untreated) were fixed by 4% paraformaldehyde, washed with PBS (3 times), treated with Triton-X-100 (0.1%) for 10 min, washed with PBS (3 times), added 5% BSA for 1 hr, then washed with PBS (3 times) before the primary antibody (anti-ASC) was added. The primary anti-ASC antibody labeled cells were incubated at 4° C. overnight, then was labeled with the secondary antibody at RT for 1 hr, washed with PBS (3 times), added Hoechst 33342, washed with PBS (3 times), added ProLong™ Gold antifade reagent, then photographed using Fluorescent Microscope (IX81 Olympus, with Lumen 200 Fluorescence Illumination System). A hallmark of inflammasome activation is the ASC speck, a micrometre-sized structure formed by the inflammasome adaptor protein ASC (apoptosis-associated speck-like protein containing a CARD), which consists of a pyrin domain (PYD) and a caspase recruitment domain (CARD). In this example, the effect of the present compound on nigericin-induced formation of ASC speck in LPS-primed d-THP-1 cells was observed using fluorescence microscope, and results are illustrated in FIG. 8.

[6] = tested on: LPS/D-GalN-induced acute liver failure in mice; assay: Animal model of LPS/D-GalN-induced acute liver failure; type: in vivo, mice (C57BL/6); details: for acute liver failure: liver bleeding and inflammation (gross liver morphology): rebastinib 5 or 10 mg/kg i.v. 1 hr before LPS (40 μg/kg)/D-GalN (400 mg/kg) i.p.
Description: (§6) C57BL/6 mice (7-10-week-old, each weighted about 20-25 g) were maintained in micro-isolator units on a standard laboratory diet. Animals were housed under humidity- and temperature-controlled conditions and the light/dark cycle was set at 12-hr intervals, maintained under specified and opportunistic pathogen-free conditions. All animal studies were conducted under protocol approved by the Animal Care and Use Committee of Chang Gung University (Taipei, Taiwan).
Mice were randomly divided into 4 groups. The test compound rebastinib (5 or 10 mg/Kg) or a control solvent (80% saline, 10% ethanol, 10% Tween-20) was injected through the tail vein of each mice. The mice were allowed to rest for 1 hr, then LPS ([…])/D-GalN (400 mg/Kg) was injected through abdominal space for 5 hr to induce acute liver failure. Blood samples and tissue samples were respectively collected. Blood samples were analyzed for their respective levels of LDH, AST, ALT, BUN, and CRE. The livers were fixed in 10% formalin for tissue section. The liver sections were stained with hematoxylin and eosin (H&E).
In this example, animal model of acute liver failure was used to investigate the effect of the present compound on acute liver failure. Briefly, animals were first subjected to LPS/D-GalN treatment (LPS: 40 […]) to create acute liver failure, then blood and tissue samples with or without treatment of the present compound were taken, which were then subjected to biochemistry and microscopy analysis.

LPS-primed d-THP-1 cells [7] = assay: Nigericin-induced IL-18 secretion in LPS-primed d-THP-1 cells (ELISA); type: cell-based, Human; details: rebastinib 0.01-1 μM, 30 min pre-incubation, nigericin 5 μM 30 min
Description: as §2, §3, §4, §5

LPS-induced ALI in mice = assay: Animal model of LPS-induced acute lung injury (ALI); type: in vivo, mice (C57BL/6); details: rebastinib 10 mg/kg i.v. 1 hr before intra-tracheal LPS 2 mg/kg, lungs collected 5 hr later
Description: as §6
ALI was induced by intra-tracheal spray of 2 mg/kg LPS in 7-8 weeks old C57BL/6 mice. Mice were fasted overnight and then intravenously injected with 50 ul of rebastinib (10 mg/kg) or an equal volume of solvent (vehicle). After 1 hr, mice were instilled with an intra-tracheal spray of 2 mg/kg LPS (dissolved in 40 μl 0.9% saline) or 0.9% saline under anesthesia. 5 hr later, mice were sacrificed and the lungs were collected. The lungs were fixed in 10% formalin for tissue section. The lung sections were stained with hematoxylin and eosin (H&E).
In this example, animal model of ALI was used to investigate the effect of the present compound on ALI. Mice were intravenously injected with 50 ul of rebastinib (10 mg/kg) or an equal volume of solvent (vehicle). After 1 hr, mice were instilled with an intra-tracheal spray of 2 mg/kg LPS (dissolved in 40 μl 0.9% saline) or 0.9% saline under anesthesia. […]

LPS-primed d-THP-1 cells [8] = assay: Imiquimod-induced IL-1β secretion in LPS-primed d-THP-1 cells (ELISA); type: cell-based, Human; details: rebastinib 0.003-1 μM, 30 min pre-incubation, IMQ 100 μM 2 hr
Description: as §2, §3, §4, §5

[9] = rebastinib 5 or 10 mg/kg i.v., LPS/D-GalN i.p. 5 hr

For “4-[4-[(5-tert-butyl-2-quinolin-6-ylpyrazol-3-yl)-carbamoylamino]-3-fluorophenoxy]-N-methylpyridine-2-carboxamide [rebastinib]”, the “nigericin-induced pyroptotic cell death (swelling, bubbles, lysis)” value (“nigericin-induced pyroptotic cell death” for short) (LPS-primed d-THP-1 cells [1]) was “inhibited”, the “nigericin-induced pyroptotic cell death” value (LPS-primed d-THP-1 cells [1]; listed as present compound) was “significantly reduced” and the “nigericin-induced IL-1β secretion” value (LPS-primed d-THP-1 cells [2]) was “inhibited”. The “nigericin-induced IL-1β secretion” value (LPS-primed d-THP-1 cells [2]; listed as present compound) was “significantly reduced”, the “MSU-induced IL-1β secretion” value (LPS-primed d-THP-1 cells [3]) was “inhibited” and the “MSU-induced IL-1β secretion” value (LPS-primed d-THP-1 cells [3]; listed as present compound) was “suppressed”. For the same compound, the “nigericin-induced pyroptotic LDH release” value (LPS-primed d-THP-1 cells [4]) was “inhibited”, the “nigericin-induced pyroptotic LDH release” value (LPS-primed d-THP-1 cells [4]; listed as present compound) was “inhibitory effect” and the “nigericin-induced ASC speck formation” value (LPS-primed d-THP-1 cells [5]) was “inhibited”. The “nigericin-induced ASC speck formation” value (LPS-primed d-THP-1 cells [5]; listed as present compound) was “greatly reduced”, the “acute liver failure: liver bleeding and inflammation (gross liver morphology)” value ([6]; 5 hr) was “attenuated” and the “acute liver failure: liver bleeding and inflammation (gross liver morphology)” value ([6]; 5 hr, listed as present compound) was “significant attenuation”. The liver tissue weight ([6]; rebastinib 5 or 10 mg/kg i.v. 1 hr before LPS/D-GalN i.p., 5 hr) was “decreases”, the “serum ALT level” value [6, 9] was “decreased significantly” and the “serum AST level” value [6, 9] was “decreased significantly”. The “serum CRE level” value [6, 9] was “decreased significantly”, the “serum LDH level” value [6, 9] was “decreased significantly” and the “serum biochemical parameters (AST, ALT, BUN, CRE, LDH)” value ([6]; rebastinib 5 or 10 mg/kg i.v., LPS/D-GalN i.p. 5 hr, clinical chemistry analyzer) was “attenuated”. For the same compound, the “nigericin-induced IL-18 secretion” value (LPS-primed d-THP-1 cells [7]) was “inhibited”, the “nigericin-induced IL-18 secretion” value (LPS-primed d-THP-1 cells [7]; listed as present compound) was “significantly reduced” and the “LPS-induced lung morphology change and infiltration (H&E)” value (LPS-induced ALI in mice) was “significantly attenuated”. The “LPS-induced lung morphology change and infiltration (H&E)” value (LPS-induced ALI in mice; listed as Rebastinib) was “attenuated”, the “imiquimod-induced IL-1β secretion” value (LPS-primed d-THP-1 cells [8]) was “inhibited” and the “imiquimod-induced IL-1β secretion” value (LPS-primed d-THP-1 cells [8]; listed as present compound) was “suppressed”.

With COc1ccc(Cl)cc1C(=O)NCCc1ccc(S(=O)(=O)NC(=O)NC2CCCCC2)cc1 [glibenclamide] the “nigericin-induced pyroptotic cell death” value (LPS-primed d-THP-1 cells [1]) was “significantly reduced” and the “nigericin-induced ASC speck formation” value (LPS-primed d-THP-1 cells [5]) was “greatly reduced”.
